Assay results reported in PMC10299677, “Fluorinated Benzofuran and Dihydrobenzofuran as Anti-Inflammatory and Potential Anticancer Agents” (International Journal of Molecular Sciences, 2023).

Key:
HCT116 cells [1] = test: HCT116 proliferation (WST-1 assay); type: cell-based, human; conditions: for inhibition of HCT116 cell proliferation: 50 and 100 µM, 72 h; for IC50: Homo sapiens, HCT-116, 72 h
Method: WST-1 assay was used to determine the effect of these compounds on HCT116 proliferation. Cells were plated in 96-well plate in triplicates (5000 cells per well) for 24 h and treated with 50 and 100 µM of the different compounds for 72 h. […] Culture medium without or with 10% FBS alone was used as basal and maximal proliferation, respectively. Results were expressed as percentage of cells incubated with 10% FBS alone.
(§1) Densitometric analyses were performed using ImageJ software (NIH, MA, USA). The ratio of the different analyzed bands to β-actin was determined and data are represented as fold change compared to the LPS-treated cells. Percentage of viable cells for proliferation assay was determined as percentage to control (non-treated cells). For TUNEL assay, apoptotic cells were quantified, and results were expressed as percentage to positive cells (cleaved DNA) compared to control (non-treated cells). Statistical analysis was performed using one-way ANOVA, followed by Dunnett’s multiple comparisons test using GraphPad Prism software. Differences were considered significant when p < 0.05.

HCT116 cells [2] = test: TUNEL assay for apoptosis (DNA cleavage) in HCT116; type: cell-based, human; conditions: 10, 25 and 50 µM, 72 h
Method: Terminal deoxynucleotidyl transferase dUTP nick-end labeling (TUNEL) assay (Sigma Aldrich 11684795910) was conducted to detect late phase of apoptosis in HCT116 cells. Cells were plated in 6-well plate (200,000 cells per well) for 24 h, and treated with compounds 1 and 2 at 10, 25, and 50 µM for 72 h. Adherent cells and cells in supernatants were collected and fixed with 4% paraformaldehyde for 2 days and then treated with PBS containing 0.1% Triton X-100 at 4 °C for 2 min. Cells were then stained with the TUNEL reagent for 1 h, and positive signals were quantified using the Guava EasyCyte8 Flow Cytometer-Millipore according to the manufacturer’s instructions.
as §1

Bcl-2 = Bcl-2 protein expression in HCT116 (Western blot); type: cell-based, human; conditions: 10, 25 and 50 µM, 72 h
Method: Macrophages were incubated with the compounds for 30 min prior to the addition of 10 ng/mL LPS for 24 h. Protein levels for COX-2 and NOS2 were detected in LPS-stimulated macrophages. As previously described, 10 µg of total protein was assessed. The primary antibodies were developed and characterized as previously described: for COX-2, mouse monoclonal antibody anti-COX-2 (clone COX-214, 1/5000); for NOS2, rabbit polyclonal antibody anti-NOS2 (dilution1/2000 [33]). Antibodies anti-phospho-NF-κB (3033S), phospho-IκBα (9246S), and total IκBα (4814S) were from Cell Signaling Technologies (Danvers, MA, USA). Total NF-κB C-20 (sc-372) was from Santa Cruz Biotechnologies (Dallas, TX, USA), and mouse β-actin (dilution 1/10,000) (Sigma-Aldrich, A5441). Clarity™ western ECL substrate (Bio-Rad Laboratories 10-5061) was used according to the manufacturer’s instructions to reveal positive bands visualized using Bio-Rad ChemiDoc. For Bcl-2 and cleaved PARP-1, HCT116 cells were plated in 6-well plates (200,000 cells per well) for 24 h, and treated with compounds 1 and 2 at 10, 25, and 50 µM for 72 h. Supernatants and cells were collected and lysed using RIPA lysis buffer containing inhibitors of protease. […]

NO = NO (nitrite) formation in LPS-treated macrophages (BMDM); type: cell-based, C57BL/6J mice; conditions: for effect on NO production: 50 µM, LPS 24 h; for IC50: compounds 30 min prior to 10 ng/mL LPS for 24 h
Method: C57BL/6J (10–15 weeks old) male mice were obtained from the animal care facility at the American University of Beirut. All animal procedures were performed following the recommendations of the IACUC (Institutional Animal Care and Use Committee approval 16-09-M379). BMDMs were prepared and characterized as described previously by our group. BMDMs were isolated from C57BL/6J mice by flushing the femur and tibia with RPMI-1640 culture media (Sigma-Aldrich R7388), and cells were collected and centrifuged at 300× g for 5 min. The supernatant was discarded, and the pellet was resuspended in 2 mL red blood lysis 10% (Sigma-Aldrich R7767) medium in PBS and incubated for 5 min at room temperature. After diluting the suspension of cells with 5 mL of RPMI containing 10% FBS and 1% penicillin–streptomycin, cells were centrifuged at 300× g for 5 min, and the cell pellet was resuspended in RPMI media containing 10% FBS supplemented with 15% L929-conditioned medium containing macrophage-colony stimulating factor (M-CSF1) and plated on […]. Cells were allowed to proliferate and differentiate for 5–6 days. Cells were harvested, washed, and allowed to adhere overnight in RPMI containing 10% FBS for treatment. Cells were previously characterized by flow cytometry as macrophages using this method. […] Cells were plated at 0.8 × 10^6 cells per 3.8 cm^2 well [27].
BMDMs were then treated with different concentrations of the benzofuran and dihydrobenzofuran derivatives for 30 min prior to the addition of 10 ng/mL LPS for 24 h. […] The supernatants were assessed for IL-6, PGE2, CCL2, and nitrite, the stable derivative of NO, as described previously.
IL-6, CCL2, nitrite (for NO), and PGE2 concentrations from 3–5 independent experiments were expressed as percentage of LPS alone and as mean ± SEM. COX activity was determined as percentage of PGE2 produced from exogenous arachidonic acid. Curve fitting and calculation of IC50 values were performed using GraphPad Prism (version 9.5.1 Software, La Jolla, CA, USA).

COC(=O)/C=C1/Oc2ccc(Br)cc2C1(F)F [Compound 1]
inhibition of HCT116 cell proliferation (HCT116 cells [1]): more than 50%
IC50 (HCT116 cells [1]): 19.5 µM
percentage of apoptotic cells, TUNEL (HCT116 cells [2]): concentration-dependent increase
expression of antiapoptotic protein Bcl-2 (Bcl-2): decreased

O=C(O)/C=C1/Oc2ccc(Br)cc2C1(F)F [Compound 2]
effect on NO production (NO): significantly decreased
IC50 (NO; Mus musculus, Macrophage): 2.4 µM
IC50 (NO): 2.42 µM
inhibition of HCT116 cell proliferation (HCT116 cells [1]): more than 50%
IC50 (HCT116 cells [1]): 24.8 µM
percentage of apoptotic cells, TUNEL (HCT116 cells [2]): concentration-dependent increase
expression of antiapoptotic protein Bcl-2 (Bcl-2): decreased

O=C(O)/C=C1\Oc2ccc(Br)cc2C1(F)F [Compound 3]
effect on NO production (NO): significantly decreased
IC50 (NO; Mus musculus, Macrophage): 5.2 µM
IC50 (NO): 5.23 µM
